Laboratory results as given in patent US8703424B2, “Predicting human developmental toxicity of pharmaceuticals using human stem-like cells and metabolomics” (Stemina Biomarker Discovery, Inc., priority 2010, dated 2014).

System: WA09 hES cells
Test: Metabolomics of hES cells dosed in 96-well plates at three dose levels (Example 8)
Format: cell-based, human
Description: For metabolomic analysis, hES cells were dosed at the three concentrations for each chemical compound based on the cell viability data. Media controls (no cells), dosed media controls (no cells with dosed media), and controls (cells with undosed media) were also included in the experimental design (FIG. 1). Spent media was collected following a three day dosing period. The collected media was immediately quenched in acetonitrile then stored at −80° C. until later analysis.
In both the viability and metabolomics steps, 96-well plates were seeded with 250,000 cells/well of WA09 hES cells. These cells were “dosed” for three days. Each day for three days, the spent media was removed and replaced with […] media containing the designated compound. Each compound stock solution was made in DMSO and each final solution used to dose hES cells contained 0.1% DMSO. […]
Samples were analyzed in both ESI positive and ESI negative modes on an Agilent QTOF instrument, operated in high resolution, extended dynamic range mode. […]
Peak picking and feature creation were performed using the open source software library XCMS. Mass features (peaks) were detected using the centwave algorithm. […]
This filter selects against spurious low abundance features at the level of detection that are not reproducibly measured, and features that may not have peak shapes amenable to reproducible detection and/or integration. […]

Q: What does the source list for `CN(C)CCOC(C)(c1ccccc1)c1ccccn1` (centres unmarked) [Doxylamine]?
A: Dimethylarginine (DMA) change (at least two dose levels): increased secretion; Malic acid change (high dose levels): extreme fold changes
